Consider 3 molecules from paper PMC3402233 (International Journal of Pharmaceutics, 2012).

Data set [1] has as its target T1, Bcrp1 (Mus musculus, UniProt Q7TMS5).
T1 sequence (Q7TMS5 1-657): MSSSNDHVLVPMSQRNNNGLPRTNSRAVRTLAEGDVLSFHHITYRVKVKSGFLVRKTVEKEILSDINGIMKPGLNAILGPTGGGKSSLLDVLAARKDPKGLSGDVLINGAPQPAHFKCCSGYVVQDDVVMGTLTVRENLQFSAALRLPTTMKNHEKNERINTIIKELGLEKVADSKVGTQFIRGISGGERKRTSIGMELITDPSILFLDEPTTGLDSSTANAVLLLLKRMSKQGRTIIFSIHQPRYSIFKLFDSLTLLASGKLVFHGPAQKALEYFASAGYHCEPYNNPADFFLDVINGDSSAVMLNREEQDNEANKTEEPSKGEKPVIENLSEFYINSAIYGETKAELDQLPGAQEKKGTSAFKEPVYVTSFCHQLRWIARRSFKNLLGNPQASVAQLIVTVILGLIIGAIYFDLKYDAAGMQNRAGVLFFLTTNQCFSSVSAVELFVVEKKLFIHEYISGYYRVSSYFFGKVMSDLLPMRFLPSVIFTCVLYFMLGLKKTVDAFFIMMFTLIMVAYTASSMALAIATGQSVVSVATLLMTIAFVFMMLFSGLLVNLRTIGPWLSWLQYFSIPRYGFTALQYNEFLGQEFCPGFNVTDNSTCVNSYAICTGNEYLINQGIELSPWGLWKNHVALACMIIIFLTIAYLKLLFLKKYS
Briefly: Bcrp1 inhibition: [3H]abacavir accumulation in MDCK-Bcrp1 cells. As to conditions: 10, 25 and 50μM inhibitor. It is filed as cell-based, murine.

Data set [2] has as its target P-gp (Homo sapiens, UniProt P08183). Briefly: P-gp inhibition: [3H]digoxin accumulation in MDCK-MDR1 cells. The data set is classed as cell-based.
The nature of data set [3]: Bi-directional transport across MDCKII-WT cell monolayers. It is filed as in vitro ADME, canine. As to conditions: dog, MDCK.
Data set [4] concerns MDCK-WT cell monolayers. The data set is described as above. As to conditions: 5μM vandetanib. It is filed as in vitro ADME, canine.
The nature of data set [5]: Brain accumulation and plasma pharmacokinetics of vandetanib in FVB mice. It is filed as in vivo, male FVB wild type mice.
Data set [6] concerns the target T1, Bcrp1. Briefly: Bi-directional transport across MDCKII-Bcrp1 cell monolayers. The data set is classed as in vitro ADME, murine.
Data set [7] has as its target T2, P-gp (MDR1) (Homo sapiens, UniProt P08183). In words: Bi-directional transport across MDCKII-MDR1 cell monolayers. It is filed as in vitro ADME.
Data set [8] deals with T2, P-gp (MDR1). In words: Cellular accumulation of vandetanib in MDCKII-MDR1 vs parent WT cells. As to conditions: 100nM vandetanib, 60 min accumulation.
Where [9] appears, read: male, FVB, mouse, plasma, iv, 5 mg/kg.

T2 sequence (P08183 whole entry): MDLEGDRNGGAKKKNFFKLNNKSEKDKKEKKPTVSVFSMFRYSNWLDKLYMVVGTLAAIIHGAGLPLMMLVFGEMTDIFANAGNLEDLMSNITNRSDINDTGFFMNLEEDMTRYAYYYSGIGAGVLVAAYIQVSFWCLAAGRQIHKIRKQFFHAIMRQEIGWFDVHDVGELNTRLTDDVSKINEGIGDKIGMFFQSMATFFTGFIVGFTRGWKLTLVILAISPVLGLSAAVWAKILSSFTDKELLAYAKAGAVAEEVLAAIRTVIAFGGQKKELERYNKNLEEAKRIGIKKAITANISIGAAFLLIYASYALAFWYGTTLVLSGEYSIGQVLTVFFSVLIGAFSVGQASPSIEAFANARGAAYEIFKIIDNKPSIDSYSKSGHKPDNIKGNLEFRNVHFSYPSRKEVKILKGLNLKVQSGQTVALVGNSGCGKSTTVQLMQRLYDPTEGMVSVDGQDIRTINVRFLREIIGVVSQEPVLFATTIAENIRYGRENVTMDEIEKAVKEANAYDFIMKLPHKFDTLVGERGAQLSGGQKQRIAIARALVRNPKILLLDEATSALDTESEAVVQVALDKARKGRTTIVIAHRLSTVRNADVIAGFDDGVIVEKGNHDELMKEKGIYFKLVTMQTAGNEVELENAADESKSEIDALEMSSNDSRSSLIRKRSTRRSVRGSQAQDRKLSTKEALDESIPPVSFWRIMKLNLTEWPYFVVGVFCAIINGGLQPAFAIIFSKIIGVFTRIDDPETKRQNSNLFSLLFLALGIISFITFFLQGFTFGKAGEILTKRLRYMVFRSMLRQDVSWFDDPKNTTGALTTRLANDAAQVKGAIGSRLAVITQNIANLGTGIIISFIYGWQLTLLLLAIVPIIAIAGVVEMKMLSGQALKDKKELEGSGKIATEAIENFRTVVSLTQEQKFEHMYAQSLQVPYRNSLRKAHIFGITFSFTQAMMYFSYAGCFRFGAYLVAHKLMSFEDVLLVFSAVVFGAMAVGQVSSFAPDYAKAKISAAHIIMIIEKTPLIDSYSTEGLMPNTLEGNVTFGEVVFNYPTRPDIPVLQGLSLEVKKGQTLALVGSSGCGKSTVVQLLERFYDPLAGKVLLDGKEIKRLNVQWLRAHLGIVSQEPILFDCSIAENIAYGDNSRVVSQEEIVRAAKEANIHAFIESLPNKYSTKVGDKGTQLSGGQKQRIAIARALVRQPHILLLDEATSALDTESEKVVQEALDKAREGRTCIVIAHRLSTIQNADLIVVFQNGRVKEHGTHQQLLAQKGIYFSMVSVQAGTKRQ
Chain of P-gp (P08183 whole entry): as above

A word on the IC50: it is the concentration that inhibits the measured activity by half. A high value points to weaker potency. Regarding `CO[C@H]1C[C@@H]2CC[C@@H](C)[C@@](O)(O2)C(=O)C(=O)N2CCCC[C@H]2C(=O)O[C@H]([C@H](C)C[C@@H]2CC[C@@H](OC(=O)C(C)(CO)CO)[C@H](OC)C2)CC(=O)[C@H](C)/C=C(\C)[C@@H](O)[C@@H](OC)C(=O)[C@H](C)C[C@H](C)/C=C/C=C/C=C/1C` [temsirolimus], in data set [1], the “Intracellular accumulation of [3H]abacavir in MDCK-Bcrp1 cells in the presence of inhibitor” value is listed as “increased significantly”. The molecule also returned an IC50 in data set [2] of 3.5 µM.
The term Papp A→B denotes the apparent permeability from the apical to the basolateral side of a cell layer. A low value points to slow passage. The term Papp B→A denotes the apparent permeability from the basolateral to the apical side of a cell layer. The efflux ratio is the permeability from basolateral to apical divided by that in the opposite direction, in the common usage. In general, AUC(0-t) refers to exposure summed from dosing to a finite time, without extrapolation to infinity. Read a high AUC(0-t) as more exposure. A word on the Vd: it is a proportionality between amount in the body and measured concentration, not a real space. A lower Vd goes with little distribution into tissue. In general, clearance refers to the volume of plasma or blood freed of the substance per unit of time. A higher clearance goes with efficient removal. `COc1cc2c(Nc3ccc(Br)cc3F)ncnc2cc1OCC1CCN(C)CC1` [Vandetanib]: in data set [3], the apical-to-basolateral permeability (Papp A→B) at 240 min, 5 μM was 7.57 ± 0.52 ×10⁻⁶ cm/s; the Papp B→A at 240 min, 5 μM worked out at 8.08 ± 0.17 ×10⁻⁶ cm/s; the efflux ratio at 240 min, 5 μM was 1.06. Also, in data set [4], the “Directionality of vandetanib transport across WT cells” value is recorded as “no directionality in transport”. This molecule gave an AUC(0-t) in data set [5] (male, FVB, mouse, brain, iv, 5 mg/kg) of 1050 ng·h/mL. In data set [5] (setting [9]), the exposure AUC(0-t) was 5090 ng·h/mL, the volume of distribution (Vd) was 1.3 L/kg and the clearance was 9.36 mL/min/kg. For the same molecule, the “Brain concentrations compared with plasma concentrations” value in data set [5] (vandetanib 5mg/kg i.v. alone, 15, 30, 60 and 120min) is reported as “Brain concentrations were significantly lower than the plasma concentration”. For the same molecule, in data set [6], the Papp A→B at 240 min, 5 μM is 5.66 ± 1.26 ×10⁻⁶ cm/s; the basolateral-to-apical permeability (Papp B→A) at 240 min, 5 μM worked out at 42.3 ± 2.64 ×10⁻⁶ cm/s; the efflux ratio at 240 min, 5 μM is 7.5. The “Directional flux of vandetanib across MDR1 transfected cells” value in data set [7] (5μM vandetanib) is “No significant difference was observed in the directional flux”. For the same molecule, in data set [7] (dog, MDCK-MDR1), the apparent permeability from apical to basolateral (Papp A→B) at 240 min, 5 μM was 5.73 ± 0.29 ×10⁻⁶ cm/s; the Papp B→A at 240 min, 5 μM worked out at 4.66 ± 0.26 ×10⁻⁶ cm/s; the efflux ratio at 240 min, 5 μM worked out at 0.81. Moreover, the “Vandetanib accumulation in MDR1 overexpressing cells versus WT cells” value in data set [8] is given as “not statistically different from WT cells”.
For `CO[C@H]1C[C@@H]2CC[C@@H](C)[C@@](O)(O2)C(=O)C(=O)N2CCCC[C@H]2C(=O)O[C@H]([C@H](C)C[C@@H]2CC[C@@H](OCCO)[C@H](OC)C2)CC(=O)[C@H](C)/C=C(\C)[C@@H](O)[C@@H](OC)C(=O)[C@H](C)C[C@H](C)/C=C/C=C/C=C/1C` [everolimus], in data set [1], the “Intracellular accumulation of [3H]abacavir in MDCK-Bcrp1 cells in the presence of inhibitor” value is “increased significantly”. The half-maximal inhibitory concentration (IC50) in data set [2] turned out to be 3 µM.
